Laboratory results: patent publication US20150258106A1, “METHODS FOR ACUTE AND LONG-TERM TREATMENT OF SUBSTANCE ABUSE” (DEMERX, INC., priority 2014, published 2015)
“Also recorded” adds a separate entry of the source.

What was measured:
[1] = Pharmacokinetics of noribogaine in healthy volunteers, ascending single oral dose (plasma noribogaine and noribogaine glucuronide); conditions: for CL/F: healthy male volunteers, fasted, n = 6, mean (SD); for mean AUC/24 hr / time after administration at which mean Cmax was observed / mean AUC/24: fasting
[2] = tested on: opioid-dependent participants; test: QT interval evaluation in opioid-dependent participants; format: in vivo, human; conditions: opioid-dependent patients, first 24 hours post administration, 60-180 mg
Procedure: Patients' QT intervals were evaluated at regular time points throughout the study.

[3] = tested on: opioid-dependent participants; test: Opiate withdrawal scales (COWS, SOWS, OOWS) in opioid-dependent participants; format: in vivo, human
Procedure: Patients were evaluated based on the Clinical Opiate Withdrawal Scale (COWS), Subjective Opiate Withdrawal Scale (SOWS), and Objective Opiate Withdrawal Scale (OOWS) scoring systems over the period of time between administration of noribogaine (or placebo) until resumption of OST. These scales are outlined in Guidelines for the Psychosocially Assisted Pharmacological Treatment of Opioid Dependence, World Health Organization, Geneva (2009), Annex 10, which is incorporated herein by reference in its entirety. The scales measure the intensity of withdrawal symptoms, based on clinical, subjective, and objective indicia.

[4] = tested on: healthy, drug-free male volunteers; test: Safety and tolerability of noribogaine in healthy humans (adverse events, vital signs, ECG); format: in vivo, human
Procedure: Pulse oximetry and capnography data were collected continuously using a GE Carescape B650 monitoring system from 2 hours prior to dosing and until six hours after dosing, and thereafter at 12, 24, 48 and 72 hours post-dosing. […] Pupillary miosis was assessed by pupillometry.
Safety and tolerability of noribogaine were tested in the group of volunteers from Example 1. […] Safety evaluations included clinical monitoring, recording of adverse events (AEs), safety laboratory tests, vital signs, ECG telemetry from −2 h to 6 h after dosing, and 12-lead electrocardiograms (ECGs) up to 216 hours post-dosing.

[5] = tested on: opioid-dependent participants; test: Time to resumption of opioid substitution treatment (OST) in opioid-dependent participants; format: in vivo, human
Procedure: The efficacy of noribogaine in humans was evaluated in opioid-dependent participants in a randomized, placebo-controlled, double-blind trial. […] See U.S. application Ser. No. 14/214,157, filed Mar. 14, 2014 and Ser. No. 14/346,655, filed Mar. 21, 2014, which are incorporated herein by reference in their entireties.
Three cohorts of nine (9) subjects (6 administered noribogaine and 3 administered placebo in each cohort) were evaluated for tolerability, pharmacokinetics, and efficacy. Cohort 1 received a single dose of 60 mg noribogaine or placebo. Cohort 2 received a single dose of 120 mg noribogaine or placebo. Cohort 3 received a single dose of 180 mg noribogaine or placebo. […] Headaches were frequent in the placebo and 60 mg noribogaine treatment groups, but were attenuated in the 120 mg and 180 mg dose groups.

[6] = single dose of 3 mg noribogaine free base
[7] = single dose of 10 mg noribogaine free base
[8] = single dose of 30 mg noribogaine free base
[9] = single dose of 60 mg noribogaine free base

In the case of `CCC1CC2CC3c4[nH]c5ccc(O)cc5c4CCN(C2)C13` (centres unmarked) [Noribogaine], the CL/F ([1]; single oral 3 mg dose, plasma) is reported as 41.4 (7.0) L/h, the CL/F ([1]; single oral 10 mg dose, plasma) is reported as 42.3 (12.0) L/h and the CL/F ([1]; single oral 30 mg dose, plasma) is reported as 46.9 (16.4) L/h. The CL/F ([1]; single oral 60 mg dose, plasma) was 34.0 (11.4) L/h, the “Cmax and AUC versus dose” value ([1]; healthy volunteers, 3-60 mg single oral doses) was “increased linearly with dose” and the “time of peak concentrations after oral dosing” value ([1]; healthy volunteers, across dose groups 3-60 mg) was 2 to 3 h. For the same compound, the absorption ([1]; healthy volunteers, oral dosing) was “rapidly absorbed”, the Vd ([1]; male, human, plasma, oral) was 1420 to 3090 L and the half-life ([1]; male, human, plasma, oral) was 28 to 50 h. It also gave an AUC(0-inf) ([1]; male, human, plasma, po, 3 mg) of 74.2 ng·h/mL, an AUC(0-t) ([1]; male, human, plasma, po, 3 mg) of 72.2 ng·h/mL and a Cmax ([1]; male, human, plasma, po, 3 mg) of 5.2 ng/mL. For the same compound, the Tmax ([1]; male, human, plasma, po, 3 mg) was 1.9 h, the Vd/F ([1]; male, human, plasma, po, 3 mg) was 2490 L and the half-life ([1]; male, human, plasma, po, 3 mg) was 40.9 h. For the same compound, the AUC(0-inf) ([1]; male, human, plasma, po, 10 mg) was 254 ng·h/mL, the AUC(0-t) ([1]; male, human, plasma, po, 10 mg) was 251 ng·h/mL and the Cmax ([1]; male, human, plasma, po, 10 mg) was 14.5 ng/mL. It also gave a Tmax ([1]; male, human, plasma, po, 10 mg) of 2.9 h, a Vd/F ([1]; male, human, plasma, po, 10 mg) of 3090 L and a half-life ([1]; male, human, plasma, po, 10 mg) of 49.2 h. It also gave an AUC(0-inf) ([1]; male, human, plasma, po, 30 mg) of 700 ng·h/mL, an AUC(0-t) ([1]; male, human, plasma, po, 30 mg) of 678 ng·h/mL and a Cmax ([1]; male, human, plasma, po, 30 mg) of 55.9 ng/mL. It also gave a Tmax ([1]; male, human, plasma, po, 30 mg) of 1.8 h, a Vd/F ([1]; male, human, plasma, po, 30 mg) of 1850 L and a half-life ([1]; male, human, plasma, po, 30 mg) of 27.6 h. For the same compound, the AUC(0-inf) ([1]; male, human, plasma, po, 60 mg) was 1960 ng·h/mL, the AUC(0-t) ([1]; male, human, plasma, po, 60 mg) was 1940 ng·h/mL and the Cmax ([1]; male, human, plasma, po, 60 mg) was 116 ng/mL. The Tmax ([1]; male, human, plasma, po, 60 mg) was 2.4 h, the Vd/F ([1]; male, human, plasma, po, 60 mg) was 1420 L and the half-life ([1]; male, human, plasma, po, 60 mg) was 29.1 h. For the same compound, the Cmax ([1]; male, human, serum, oral, 3 mg) was 5.2 ng/mL, the Cmax ([1]; male, human, serum, oral, 10 mg) was 14.5 ng/mL and the Cmax ([1]; male, human, serum, oral, 30 mg) was 55.9 ng/mL. The Cmax ([1]; male, human, serum, oral, 60 mg) was 116 ng/mL, the “mean AUC/24 hr” value [1, 6] was 3.1 ng/mL and the “time after administration at which mean Cmax was observed” value (from here on “time after administration”) [1, 6] was 1.9 h. For the same compound, the “mean AUC/24 hr” value [1, 7] was 10.6 ng/mL, the “time after administration” value [1, 7] was 2.9 h and the “mean AUC/24” value [1, 8] was 29.2 ng/mL. For the same compound, the “time after administration” value [1, 8] was 1.75 h, the “mean AUC/24” value [1, 9] was 61 ng/mL and the “time after administration” value [1, 9] was 1.75 h. The “QT interval prolongation (ΔQTc1)” value [2] was “dose-dependent increase in QT interval prolongation”, the “withdrawal symptoms (COWS, OOWS, SOWS), first six hours following dosing” value ([3]; opioid-dependent patients, 120 mg) was “fewer withdrawal symptoms than the other patients” and the “withdrawal symptoms (COWS, OOWS, SOWS), noribogaine compared with placebo” value ([3]; opioid-dependent patients, 60, 120 or 180 mg) was “Patients administered placebo generally experienced more withdrawal symptoms than patients who were administered noribogaine”. For the same compound, the “adverse events, Mild” value ([4]; healthy volunteers, 3 mg dose) was “Back pain; also recorded: Dizziness; also recorded: Epistaxis; also recorded: Headache”, the “adverse events, Moderate” value ([4]; healthy volunteers, 3 mg dose) was “Headache” and the “number of adverse events reported” value ([4]; healthy volunteers, 3 mg dose group) was “five adverse events were reported by two subjects”. The “adverse events, Mild” value ([4]; healthy volunteers, 10 mg dose) was “Headache”, the “number of adverse events reported” value ([4]; healthy volunteers, 10 mg dose group, single subject) was “one adverse event” and the “adverse events, Mild” value ([4]; healthy volunteers, 30 mg dose) was “Headache”. The “number of adverse events reported” value ([4]; healthy volunteers, 30 mg dose group, single subject) was “one adverse event”, the “oximetry, capnography, respiratory rate” value ([4]; healthy volunteers, 3-60 mg) was “no changes in oximetry or capnography, or changes in respiratory rate” and the “vital signs and safety laboratory tests” value ([4]; healthy volunteers, 3-60 mg) was “no changes in vital signs or safety laboratory tests of note”. The “intensity of adverse events” value ([4]; healthy volunteers, all groups, all resolved prior to study completion) was “mild-moderate intensity”, the QTcF values ([4]; healthy volunteers, at any time) was ≤ 500 ms and the “single increase in QTcF” value ([4]; one subject dosed with 10 mg, at 24 hours post-dosing) was > 60 ms. For the same compound, the “average time to resumption of opioids” value ([5]; opioid-dependent patients, single 120 mg dose) was “greater than 20 hours” and the “Time to resumption of OST compared with untreated patients or 60 mg noribogaine” value ([5]; single 180 mg dose) was “longer than untreated patients”.
